Source: patent US20050282743A1, “Molecular interactions in cells” (Arbor Vita Corporation, priority 2001, published 2005)
Ends that are not written are not given here. Peptide text beside a SMILES is read from it. * marks the point of attachment. Biotin = O=C1N[C@H]2[C@H](CS[C@H]2CCCCC(=O)*)N1

Experiments:
Assay in all cases: G' assay (10 uM PL peptide), results of TABLE 7 and TABLE 12
Assay type in all cases: binding
[1] = molecular target: T1, PDZ protein (GST-PDZ fusion) (Homo sapiens, UniProt O14907); conditions: PDZ TIP1, PDZ Domain 1
T1 construct: made in house; host or cells: E. coli (DH5alpha, BL21 or JM109)
T1 sequence (O14907 1-124): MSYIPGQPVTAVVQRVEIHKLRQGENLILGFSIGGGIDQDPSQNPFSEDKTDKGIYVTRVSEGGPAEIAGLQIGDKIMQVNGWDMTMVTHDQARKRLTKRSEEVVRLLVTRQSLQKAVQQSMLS
Summary of the method: (§1)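 Biotinylated PL peptides at 10 uM (vs 20 uM in G^0 assay) bound to GST-PDZ fusions; PDZ protein at 5 ug/ml unless another concentration listed. Bound peptide read as A450 nm, classified 0–5 (0 = A450 0; 5 = A450 >4 repeated).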

[2] = molecular target: T2, PDZ protein (GST-PDZ fusion) (Homo sapiens, UniProt P78352)
T2 construct: made in house; host or cells: E. coli (DH5alpha, BL21 or JM109)
Summary of the method: as §1

[3] = molecular target: T3, PDZ protein (GST-PDZ fusion) (Homo sapiens, UniProt Q12959)
T3 construct: made in house; host or cells: E. coli (DH5alpha, BL21 or JM109)
Summary of the method: as §1

[4] = molecular target: T4, PDZ protein (GST-PDZ fusion) (Homo sapiens, UniProt Q8NI35); conditions: PDZ INADL
T4 construct: made in house; host or cells: E. coli (DH5alpha, BL21 or JM109)
Summary of the method: as §1

[5] = molecular target: T5, PDZ protein (GST-PDZ fusion) (Homo sapiens, UniProt O15018)
T5 construct: made in house; host or cells: E. coli (DH5alpha, BL21 or JM109)
Summary of the method: as §1

[6] = molecular target: T6, PDZ protein (GST-PDZ fusion) (Homo sapiens, UniProt P57105); conditions: PDZ Outer Membrane, PDZ Domain 1
T6 construct: made in house; host or cells: E. coli (DH5alpha, BL21 or JM109)
T6 sequence (P57105 1-145): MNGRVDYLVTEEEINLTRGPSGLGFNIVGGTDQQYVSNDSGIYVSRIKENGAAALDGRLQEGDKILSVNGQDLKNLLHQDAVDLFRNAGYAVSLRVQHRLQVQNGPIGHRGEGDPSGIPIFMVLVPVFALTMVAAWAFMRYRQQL
Summary of the method: as §1

[7] = molecular target: T7, PDZ protein (GST-PDZ fusion) (Homo sapiens, UniProt Q15700)
T7 construct: made in house; host or cells: E. coli (DH5alpha, BL21 or JM109)
Summary of the method: as §1

[8] = molecular target: T8, PDZ protein (GST-PDZ fusion) (Homo sapiens, UniProt Q13796); conditions: PDZ hAPXL, PDZ Domain 1
T8 construct: made in house; host or cells: E. coli (DH5alpha, BL21 or JM109)
Summary of the method: as §1

[9] = molecular target: T9, PDZ protein (GST-PDZ fusion) (Homo sapiens, UniProt Q14160)
T9 construct: made in house; host or cells: E. coli (DH5alpha, BL21 or JM109)
Summary of the method: as §1

T9 sequence (Q14160 whole entry, the tested form may be a part): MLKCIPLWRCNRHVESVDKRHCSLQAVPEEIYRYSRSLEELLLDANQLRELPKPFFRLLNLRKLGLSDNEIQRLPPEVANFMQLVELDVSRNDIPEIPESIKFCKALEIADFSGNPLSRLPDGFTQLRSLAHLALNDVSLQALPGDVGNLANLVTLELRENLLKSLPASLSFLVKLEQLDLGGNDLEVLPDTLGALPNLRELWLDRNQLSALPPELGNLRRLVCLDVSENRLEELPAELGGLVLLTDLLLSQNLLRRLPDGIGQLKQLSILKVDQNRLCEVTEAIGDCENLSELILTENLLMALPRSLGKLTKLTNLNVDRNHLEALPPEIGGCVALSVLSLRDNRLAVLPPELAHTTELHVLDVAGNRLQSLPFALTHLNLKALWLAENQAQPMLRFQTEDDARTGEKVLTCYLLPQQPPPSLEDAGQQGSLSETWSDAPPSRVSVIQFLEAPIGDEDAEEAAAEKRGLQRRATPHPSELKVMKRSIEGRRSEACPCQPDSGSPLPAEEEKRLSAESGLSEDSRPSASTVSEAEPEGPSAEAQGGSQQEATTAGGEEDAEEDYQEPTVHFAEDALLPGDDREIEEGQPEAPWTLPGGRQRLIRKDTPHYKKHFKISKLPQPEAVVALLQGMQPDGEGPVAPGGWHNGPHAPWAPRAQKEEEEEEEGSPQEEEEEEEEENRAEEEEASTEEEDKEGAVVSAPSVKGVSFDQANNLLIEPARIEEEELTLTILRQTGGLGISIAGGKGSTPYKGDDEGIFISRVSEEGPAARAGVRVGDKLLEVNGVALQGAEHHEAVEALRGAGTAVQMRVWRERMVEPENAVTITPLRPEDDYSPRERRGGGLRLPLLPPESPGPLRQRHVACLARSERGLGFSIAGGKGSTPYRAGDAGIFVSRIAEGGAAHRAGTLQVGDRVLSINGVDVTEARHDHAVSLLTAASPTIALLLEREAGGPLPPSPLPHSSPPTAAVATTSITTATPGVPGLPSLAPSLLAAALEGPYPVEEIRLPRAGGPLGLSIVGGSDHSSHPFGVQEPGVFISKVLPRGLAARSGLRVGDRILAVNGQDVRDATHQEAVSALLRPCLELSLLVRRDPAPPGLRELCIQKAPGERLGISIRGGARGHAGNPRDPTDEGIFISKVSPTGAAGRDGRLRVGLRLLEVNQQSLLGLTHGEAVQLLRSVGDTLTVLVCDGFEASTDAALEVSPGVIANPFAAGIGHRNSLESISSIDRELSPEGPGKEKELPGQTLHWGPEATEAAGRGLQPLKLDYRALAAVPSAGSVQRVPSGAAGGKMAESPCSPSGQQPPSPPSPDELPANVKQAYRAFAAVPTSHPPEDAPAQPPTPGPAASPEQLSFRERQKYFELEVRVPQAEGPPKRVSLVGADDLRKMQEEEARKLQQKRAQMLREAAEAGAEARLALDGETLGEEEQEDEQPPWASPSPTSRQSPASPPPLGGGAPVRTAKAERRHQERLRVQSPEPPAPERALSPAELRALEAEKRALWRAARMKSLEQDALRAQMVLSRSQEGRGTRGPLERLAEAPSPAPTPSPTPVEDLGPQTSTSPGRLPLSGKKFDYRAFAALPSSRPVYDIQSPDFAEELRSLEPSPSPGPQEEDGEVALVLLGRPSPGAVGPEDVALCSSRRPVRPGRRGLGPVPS
T7 sequence (Q15700 whole entry, the tested form may be a part): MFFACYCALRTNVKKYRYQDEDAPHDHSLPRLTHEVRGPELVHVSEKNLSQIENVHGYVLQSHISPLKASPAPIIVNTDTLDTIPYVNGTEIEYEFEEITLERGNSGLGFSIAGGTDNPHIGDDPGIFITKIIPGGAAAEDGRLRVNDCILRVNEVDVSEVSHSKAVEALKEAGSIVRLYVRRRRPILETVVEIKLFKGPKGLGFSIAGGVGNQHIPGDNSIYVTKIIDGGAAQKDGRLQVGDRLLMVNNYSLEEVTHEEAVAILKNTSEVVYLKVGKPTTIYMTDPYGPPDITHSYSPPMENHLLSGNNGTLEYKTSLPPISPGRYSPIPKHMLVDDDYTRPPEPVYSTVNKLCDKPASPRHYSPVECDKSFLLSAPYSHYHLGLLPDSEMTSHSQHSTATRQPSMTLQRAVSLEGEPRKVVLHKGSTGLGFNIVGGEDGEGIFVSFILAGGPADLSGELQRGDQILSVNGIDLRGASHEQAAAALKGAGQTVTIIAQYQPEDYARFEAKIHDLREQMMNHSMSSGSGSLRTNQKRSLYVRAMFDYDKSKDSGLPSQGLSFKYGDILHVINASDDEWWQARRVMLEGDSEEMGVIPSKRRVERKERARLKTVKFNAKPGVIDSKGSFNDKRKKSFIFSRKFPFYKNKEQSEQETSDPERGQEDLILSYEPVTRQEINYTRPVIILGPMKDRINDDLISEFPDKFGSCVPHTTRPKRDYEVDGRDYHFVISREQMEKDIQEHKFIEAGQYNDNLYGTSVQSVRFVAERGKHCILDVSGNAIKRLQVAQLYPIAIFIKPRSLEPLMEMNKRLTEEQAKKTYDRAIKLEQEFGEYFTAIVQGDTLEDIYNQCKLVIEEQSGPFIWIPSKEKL
T3 sequence (Q12959 whole entry, the tested form may be a part): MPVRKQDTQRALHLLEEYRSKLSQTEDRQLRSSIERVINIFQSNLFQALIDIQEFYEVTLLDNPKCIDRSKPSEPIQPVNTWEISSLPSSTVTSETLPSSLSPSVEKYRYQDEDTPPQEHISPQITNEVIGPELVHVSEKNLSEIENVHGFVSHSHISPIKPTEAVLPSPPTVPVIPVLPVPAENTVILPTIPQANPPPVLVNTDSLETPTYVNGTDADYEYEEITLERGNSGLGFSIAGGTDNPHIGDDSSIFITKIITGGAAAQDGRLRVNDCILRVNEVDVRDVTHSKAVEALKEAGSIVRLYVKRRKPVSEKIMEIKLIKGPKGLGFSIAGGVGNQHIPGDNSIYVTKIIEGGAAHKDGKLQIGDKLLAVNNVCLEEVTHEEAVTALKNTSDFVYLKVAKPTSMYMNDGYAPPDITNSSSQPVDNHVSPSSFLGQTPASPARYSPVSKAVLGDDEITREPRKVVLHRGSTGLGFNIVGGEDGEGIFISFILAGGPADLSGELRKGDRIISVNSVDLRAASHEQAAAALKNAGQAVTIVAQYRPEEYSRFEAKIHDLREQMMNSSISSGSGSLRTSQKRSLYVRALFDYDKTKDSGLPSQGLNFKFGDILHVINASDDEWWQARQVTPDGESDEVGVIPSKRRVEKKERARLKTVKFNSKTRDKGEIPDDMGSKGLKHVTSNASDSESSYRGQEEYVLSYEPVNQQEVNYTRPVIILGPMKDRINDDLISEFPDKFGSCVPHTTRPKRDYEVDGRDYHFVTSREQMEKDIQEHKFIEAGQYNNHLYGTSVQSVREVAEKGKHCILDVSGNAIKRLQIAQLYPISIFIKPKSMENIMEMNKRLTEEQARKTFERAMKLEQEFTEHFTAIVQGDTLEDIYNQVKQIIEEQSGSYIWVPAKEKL
T2 sequence (P78352 whole entry, the tested form may be a part): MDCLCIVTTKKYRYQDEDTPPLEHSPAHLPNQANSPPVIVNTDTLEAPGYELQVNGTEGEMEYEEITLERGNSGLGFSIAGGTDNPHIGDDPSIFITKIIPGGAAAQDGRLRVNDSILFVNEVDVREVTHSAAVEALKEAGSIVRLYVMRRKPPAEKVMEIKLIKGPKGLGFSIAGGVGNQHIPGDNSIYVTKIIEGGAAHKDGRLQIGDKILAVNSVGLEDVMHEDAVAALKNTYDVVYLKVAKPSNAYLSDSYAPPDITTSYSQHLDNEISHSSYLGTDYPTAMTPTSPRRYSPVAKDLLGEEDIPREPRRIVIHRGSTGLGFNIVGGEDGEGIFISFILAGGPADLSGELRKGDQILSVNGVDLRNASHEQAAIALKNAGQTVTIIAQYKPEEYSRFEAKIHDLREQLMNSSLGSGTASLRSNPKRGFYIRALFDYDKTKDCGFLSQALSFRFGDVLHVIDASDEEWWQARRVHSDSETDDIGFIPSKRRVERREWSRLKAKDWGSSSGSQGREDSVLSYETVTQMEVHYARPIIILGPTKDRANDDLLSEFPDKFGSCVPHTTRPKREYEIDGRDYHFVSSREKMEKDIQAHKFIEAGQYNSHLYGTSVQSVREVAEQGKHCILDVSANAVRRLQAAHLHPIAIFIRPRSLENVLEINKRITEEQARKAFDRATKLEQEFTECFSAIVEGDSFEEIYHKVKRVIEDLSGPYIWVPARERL

Molecule | Classification [1] | Classification ([2]; PDZ PSD95, PDZ Domain 1, 2, 3) | Classification ([3]; PDZ DLG1, PDZ Domain 1, 2) | Classification ([5]; PDZ AIPC, PDZ Domain 1) | Classification [6] | Classification ([3]; PDZ DLG1, PDZ Domain 2) | Classification ([7]; PDZ DLG2, PDZ Domain 2) | Classification ([4]; PDZ Domain 3) | also measured
RNIEEVYVGGKQVVPFSSSV (Biotin-RNIEEVYVGGKQVVPFSSSV) [Nedasin (s-form)] | 5 (A450 nm of 4 more than 2× repeated) | 3 (A450 nm 2-3) | 3 (A450 nm 2-3) |  |  |  |  |  | Classification ([4]; PDZ Domain 8): 1 (A450 nm 0-1)
CC[C@H](C)[C@H](NC(=O)[C@H](CCC(=O)O)NC(=O)[C@H](CC(N)=O)NC(=O)[C@H](CCCNC(=N)N)NC(=O)[C@H](Cc1ccccc1)NC(=O)[C@H](CC(N)=O)NC(=O)[C@H](CO)NC(=O)[C@H](CC(N)=O)NC(=O)[C@H](CCC(=O)O)NC(=O)[C@H](CO)NC(=O)[C@H](CC(=O)O)NC(=O)[C@H](CO)NC(=O)[C@@H](NC(=O)[C@@H](NC(=O)[C@H](CC(=O)O)NC(=O)[C@H](CCCCN)NC(=O)CCCC[C@@H]1SC[C@@H]2NC(=O)N[C@@H]21)[C@@H](C)CC)[C@@H](C)O)C(=O)N[C@@H](CCC(N)=O)C(=O)N[C@@H](CO)C(=O)N[C@@H](CC(C)C)C(=O)N[C@H](C(=O)O)C(C)C [CD95] (Biotin-KDITSDSENSNFRNEIQSLV-OH; C-terminus assumed) |  |  |  | 1 (A450 nm 0-1) | 1 (A450 nm 0-1) | 1 (A450 nm 0-1) | 1 (A450 nm 0-1) |  | 
CC[C@H](C)[C@H](NC(=O)[C@H](Cc1c[nH]cn1)NC(=O)[C@H](C)NC(=O)[C@H](C)NC(=O)[C@H](CO)NC(=O)[C@@H]1CCCN1C(=O)[C@H](CCCNC(=N)N)NC(=O)[C@H](CC(=O)O)NC(=O)[C@H](CCCCN)NC(=O)[C@@H]1CCCN1C(=O)[C@H](CC(=O)O)NC(=O)[C@H](CCC(=O)O)NC(=O)CCCC[C@@H]1SC[C@@H]2NC(=O)N[C@@H]21)C(=O)N[C@H](C(=O)N[C@@H](CCC(=O)O)C(=O)N[C@@H](C)C(=O)N[C@@H](CC(C)C)C(=O)N[C@@H](CCC(=O)O)C(=O)N[C@H](C(=O)N[C@@H](CC(=O)O)C(=O)N[C@H](C(=O)O)C(C)C)[C@@H](C)O)C(C)C [PDZ-binding kinase (PBK)] (Biotin-EDPKDRPSAAHIVEALETDV-OH; C-terminus assumed) | 1 (A450 nm 0-1) | 1 (A450 nm 0-1) | 1 (A450 nm 0-1) |  |  |  |  |  | 
ELLQFCRTPNPALKNGQYWV (Biotin-ELLQFCRTPNPALKNGQYWV) | 1 (A450 nm 0-1) |  |  | 5 (A450 nm of 4 more than 2× repeated) | 1 (A450 nm 0-1) |  |  | 3 (A450 nm 2-3) | Classification ([5]; PDZ KIAA0300, PDZ Domain 1): 2 (A450 nm 1-2); Classification [8]: 3 (A450 nm 2-3); Classification ([4]; PDZ Domain 5): 5 (A450 nm of 4 more than 2× repeated); Classification ([4]; PDZ Domain 8): 3 (A450 nm 2-3)
SLKPGTVLPPPPYRHRNTVV (Biotin-SLKPGTVLPPPPYRHRNTVV) [ErbB-4 receptor] |  | 1 (A450 nm 0-1) | 1 (A450 nm 0-1) |  |  |  |  |  | 
CC[C@H](C)[C@H](NC(=O)[C@H](C)NC(=O)[C@H](CC(C)C)NC(=O)[C@H](Cc1c[nH]c2ccccc12)NC(=O)[C@H](Cc1c[nH]cn1)NC(=O)[C@H](CCC(N)=O)NC(=O)[C@H](CC(C)C)NC(=O)[C@H](CCC(N)=O)NC(=O)[C@H](Cc1ccccc1)NC(=O)[C@H](CCC(N)=O)NC(=O)[C@H](CCCNC(=N)N)NC(=O)[C@@H](NC(=O)[C@H](CC(=O)O)NC(=O)[C@H](CCCNC(=N)N)NC(=O)[C@H](CCC(N)=O)NC(=O)[C@H](C)NC(=O)[C@@H](NC(=O)[C@H](CC(C)C)NC(=O)[C@H](Cc1c[nH]cn1)NC(=O)[C@H](Cc1c[nH]cn1)NC(=O)CCCC[C@@H]1SC[C@@H]2NC(=O)N[C@@H]21)C(C)C)[C@@H](C)CC)C(=O)O [noradrenaline transporter] (Biotin-HHLVAQRDIRQFQLQHWLAI-OH; C-terminus assumed) |  |  |  | 2 (A450 nm 1-2) |  |  |  | 3 (A450 nm 2-3) | 
CC[C@H](C)[C@H](NC(=O)[C@H](CCC(=O)O)NC(=O)[C@H](CO)NC(=O)[C@H](CCC(=O)O)NC(=O)[C@H](CCCNC(=N)N)NC(=O)[C@H](CCCNC(=N)N)NC(=O)[C@H](CC(C)C)NC(=O)[C@@H]1CCCN1C(=O)[C@H](CCCNC(=N)N)NC(=O)[C@@H]1CCCN1C(=O)[C@H](CCC(=O)O)NC(=O)[C@H](CC(C)C)NC(=O)[C@@H]1CCCN1C(=O)[C@@H](NC(=O)[C@H](CO)NC(=O)[C@H](C)NC(=O)[C@H](CCC(N)=O)NC(=O)[C@H](CC(N)=O)NC(=O)[C@H](Cc1c[nH]cn1)NC(=O)[C@H](CC(C)C)NC(=O)CCCC[C@@H]1SC[C@@H]2NC(=O)N[C@@H]21)C(C)C)C(=O)O [Kir2.1 (inwardly rect. K+ channel)] (Biotin-LHNQASVPLEPRPLRRESEI-OH; C-terminus assumed) |  | 2 (A450 nm 1-2) | 2 (A450 nm 1-2) |  | 4 (A450 nm 3-4) | 1 (A450 nm 0-1) | 1 (A450 nm 0-1) |  | 
CC[C@H](C)[C@H](NC(=O)[C@H](CCC(N)=O)NC(=O)CCCC[C@@H]1SC[C@@H]2NC(=O)N[C@@H]21)C(=O)N[C@@H](CO)C(=O)N1CCC[C@H]1C(=O)NCC(=O)NCC(=O)N[C@@H](CC(C)C)C(=O)N[C@@H](CCC(=O)O)C(=O)N1CCC[C@H]1C(=O)N1CCC[C@H]1C(=O)N[C@@H](CO)C(=O)N[C@@H](CCC(=O)O)C(=O)N[C@@H](CCCCN)C(=O)N[C@@H](Cc1c[nH]cn1)C(=O)N[C@@H](Cc1ccccc1)C(=O)N[C@@H](CCCNC(=N)N)C(=O)N[C@@H](CCC(=O)O)C(=O)N[C@H](C(=O)N[C@@H](CCC(=O)O)C(=O)N[C@H](C(=O)O)C(C)C)[C@@H](C)O [Tax] |  |  |  | 1 (A450 nm 0-1) | 5 (A450 nm of 4 more than 2× repeated) | 5 (A450 nm of 4 more than 2× repeated) | 5 (A450 nm of 4 more than 2× repeated) | 1 (A450 nm 0-1) | Classification ([2]; PDZ PSD95, PDZ Domain 1): 5 (A450 nm of 4 more than 2× repeated); Classification ([2]; PDZ PSD95, PDZ Domain 2): 1 (A450 nm 0-1); Classification ([2]; PDZ PSD95, PDZ Domain 3): 1 (A450 nm 0-1); Classification ([3]; PDZ DLG1, PDZ Domain 1): 5 (A450 nm of 4 more than 2× repeated); Classification ([9]; PDZ KIAA0147, PDZ Domain 1): 5 (A450 nm of 4 more than 2× repeated); Classification ([9]; PDZ KIAA0147, PDZ Domain 2): 5 (A450 nm of 4 more than 2× repeated); Classification ([9]; PDZ KIAA0147, PDZ Domain 3): 1 (A450 nm 0-1); Classification ([9]; PDZ KIAA0147, PDZ Domain 4): 1 (A450 nm 0-1); Classification ([7]; PDZ DLG2, PDZ Domain 1): 2 (A450 nm 1-2)
